The molecules below were run against farnesyl transferase (Homo sapiens, UniProt P49354+P49356) (assay: Farnesyl transferase inhibition, [3H]-farnesylation of biotinylated K-ras C-terminal peptide (SPA assay)). Conditions: K-Ras substrate; 60 min at 37° C.; mean of two IC50 values; read-out: In vitro inhibitory activity (K-Ras) IC50.
Format: biochemical

| IC50 | SMILES |
| --- | --- |
| 244 nM | C=C(C(=O)N1C[C@H]2[C@@]3(c4ccc(OC)cc4)CC[C@H](c4ccccc43)[C@@]2(C(=O)NCc2cccnc2)C1)c1ccccc1OC (relative stereo) [Example 76, (3aRS,4SR,9SR,9aRS)-4,9-ethano-9-(4-methoxyphenyl)-2-[2-(2-methoxyphenyl)propenoyl]-2,3,3a,4,9,9a-hexahydro-1H-benzo[f]isoindole-3a-N-(3-pyridylmethyl)carboxamide] |
| 273 nM | C=C(C(=O)N1C[C@@H]2[C@]3(c4ccc(C(F)(F)F)cc4)CC[C@@H](c4ccccc43)[C@]2(C(=O)OC)C1)c1ccccc1OC (racemic) [Example 39, methyl (3aRS,4SR,9SR,9aRS)-4,9-ethano-2-[2-(2-methoxyphenyl)propenoyl]-9-[4-(trifluoromethyl)phenyl]-2,3,3a,4,9,9a-hexahydro-1H-benzo[f]isoindole-3a-carboxylate] |
| 408 nM | C=C(C(=O)N1C[C@@H]2[C@]3(c4ccc(CC)cc4)CC[C@@H](c4ccccc43)[C@]2(C(=O)OC)C1)c1ccccc1OC (racemic) [Example 59, methyl (3aRS,4SR,9SR,9aRS)-4,9-ethano-9-(4-ethylphenyl)-2-[2-(2-methoxyphenyl)propenoyl]-2,3,3a,4,9,9a-hexahydro-1H-benzo[f]isoindole-3a-carboxylate] |
| 124 nM | C=C(C(=O)N1C[C@@H]2[C@]3(c4ccc(CC)cc4)CC[C@@H](c4ccccc43)[C@]2(C(=O)O)C1)c1ccccc1OC (racemic) [Example 60, (3aRS,4SR,9SR,9aRS)-4,9-ethano-9-(4-ethylphenyl)-2-[2-(2-methoxyphenyl)propenoyl]-2,3,3a,4,9,9a-hexahydro-1H-benzo[f]isoindole-3a-carboxylic Acid] |
| 111 nM | C=C(C(=O)N1C[C@@H]2[C@]3(c4ccc(C)cc4)CC[C@@H](c4ccccc43)[C@]2(C(=O)NOC)C1)c1ccccc1OC (racemic) [Example 21, Methyl (3aRS,4SR,9SR,9aRS)-4,9-ethano-2-[2-(2-methoxyphenyl)propenoyl]-9-(4-methylphenyl)-2,3,3a,4,9,9a-hexahydro-1H-benzo[f]isoindole-3a-hydroxamate] |
| 48 nM | C=C(C(=O)N1C[C@@H]2[C@]3(c4ccc(OC)cc4)CC[C@@H](c4ccccc43)[C@]2(C(=O)NO)C1)c1ccccc1OC (racemic) [Example 78, (3aRS,4SR,9SR,9aRS)-4,9-ethano-9-(4-methoxyphenyl)-2-[2-(2-methoxyphenyl)propenoyl]-2,3,3a,4,9,9a-hexahydro-1H-benzo[f]isoindole-3a-hydroxamic acid] |
| 280 nM | C=C(C(=O)N1C[C@@H]2[C@]3(c4ccc(C(C)C)cc4)CC[C@@H](c4ccccc43)[C@]2(C(=O)O)C1)c1ccccc1OC (racemic) [Example 57, (3aRS,4SR,9SR,9aRS)-4,9-ethano-9-(4-isopropylphenyl)-2-[2-(2-methoxyphenyl)propenoyl]-2,3,3a,4,9,9a-hexahydro-1H-benzo[f]isoindole-3a-carboxylic Acid] |
| 106 nM | C=C(C(=O)N1C[C@@H]2[C@]3(c4ccc5c(c4)OCCO5)CC[C@@H](c4ccccc43)[C@]2(C(=O)O)C1)c1ccccc1OC (racemic) [Example 32, (3aRS,4SR,9SR,9aRS)-9-(2,3-dihydro-1,4-benzodioxin-6-yl)-4,9-ethano-2-[2-(2-methoxyphenyl)-propenoyl]-2,3,3a,4,9,9a-hexahydro-1H-benzo[f]isoindole-3a-carboxylic Acid] |
| 83 nM | C=C(C(=O)N1C[C@@H]2[C@]3(c4ccc(C(F)(F)F)cc4)CC[C@@H](c4ccccc43)[C@]2(C(=O)NCc2cccnc2)C1)c1ccccc1OC (relative stereo) [Example 42, (3aRS,4SR,9SR,9aRS)-4,9-ethano-2-[2-(2-methoxyphenyl)propenoyl]-9-[4-(trifluoromethyl)phenyl]-2,3,3a,4,9,9a-hexahydro-1H-benzo[f]isoindole-3a-N-(3-pyridylmethyl)carboxamide] |

— patent publication US6218406A, “Farnesyl transferase inhibitors, their preparation, the pharmaceutical compositions which contain them and their use in the preparation of medicaments” (Aventis Pharma S.A., priority 1996, dated 2001)
